The text below walks through data of patent US20250340574A1, “MODULATORS OF CYSTIC FIBROSIS TRANSMEMBRANE CONDUCTANCE REGULATOR” (Vertex Pharmaceuticals Incorporated, priority 2022, published 2025).

The structures appear in SMILES notation.

For this test, the target named is T1, CFTR (F508del/MF-HBE cells) (Homo sapiens, UniProt P13569, DEL508-508).
T1 construct: human bronchial epithelial (HBE) cells derived from CF subjects heterozygous for F508del and a minimal function CFTR mutation (F508del/MF-HBE); endogenous in cells; host or cells: Primary human bronchial epithelial cells from CF subjects (F508del/MF genotype), differentiated at an air-liquid interface
T1 sequence (P13569 with tags, fused parts or gaps DEL508-508): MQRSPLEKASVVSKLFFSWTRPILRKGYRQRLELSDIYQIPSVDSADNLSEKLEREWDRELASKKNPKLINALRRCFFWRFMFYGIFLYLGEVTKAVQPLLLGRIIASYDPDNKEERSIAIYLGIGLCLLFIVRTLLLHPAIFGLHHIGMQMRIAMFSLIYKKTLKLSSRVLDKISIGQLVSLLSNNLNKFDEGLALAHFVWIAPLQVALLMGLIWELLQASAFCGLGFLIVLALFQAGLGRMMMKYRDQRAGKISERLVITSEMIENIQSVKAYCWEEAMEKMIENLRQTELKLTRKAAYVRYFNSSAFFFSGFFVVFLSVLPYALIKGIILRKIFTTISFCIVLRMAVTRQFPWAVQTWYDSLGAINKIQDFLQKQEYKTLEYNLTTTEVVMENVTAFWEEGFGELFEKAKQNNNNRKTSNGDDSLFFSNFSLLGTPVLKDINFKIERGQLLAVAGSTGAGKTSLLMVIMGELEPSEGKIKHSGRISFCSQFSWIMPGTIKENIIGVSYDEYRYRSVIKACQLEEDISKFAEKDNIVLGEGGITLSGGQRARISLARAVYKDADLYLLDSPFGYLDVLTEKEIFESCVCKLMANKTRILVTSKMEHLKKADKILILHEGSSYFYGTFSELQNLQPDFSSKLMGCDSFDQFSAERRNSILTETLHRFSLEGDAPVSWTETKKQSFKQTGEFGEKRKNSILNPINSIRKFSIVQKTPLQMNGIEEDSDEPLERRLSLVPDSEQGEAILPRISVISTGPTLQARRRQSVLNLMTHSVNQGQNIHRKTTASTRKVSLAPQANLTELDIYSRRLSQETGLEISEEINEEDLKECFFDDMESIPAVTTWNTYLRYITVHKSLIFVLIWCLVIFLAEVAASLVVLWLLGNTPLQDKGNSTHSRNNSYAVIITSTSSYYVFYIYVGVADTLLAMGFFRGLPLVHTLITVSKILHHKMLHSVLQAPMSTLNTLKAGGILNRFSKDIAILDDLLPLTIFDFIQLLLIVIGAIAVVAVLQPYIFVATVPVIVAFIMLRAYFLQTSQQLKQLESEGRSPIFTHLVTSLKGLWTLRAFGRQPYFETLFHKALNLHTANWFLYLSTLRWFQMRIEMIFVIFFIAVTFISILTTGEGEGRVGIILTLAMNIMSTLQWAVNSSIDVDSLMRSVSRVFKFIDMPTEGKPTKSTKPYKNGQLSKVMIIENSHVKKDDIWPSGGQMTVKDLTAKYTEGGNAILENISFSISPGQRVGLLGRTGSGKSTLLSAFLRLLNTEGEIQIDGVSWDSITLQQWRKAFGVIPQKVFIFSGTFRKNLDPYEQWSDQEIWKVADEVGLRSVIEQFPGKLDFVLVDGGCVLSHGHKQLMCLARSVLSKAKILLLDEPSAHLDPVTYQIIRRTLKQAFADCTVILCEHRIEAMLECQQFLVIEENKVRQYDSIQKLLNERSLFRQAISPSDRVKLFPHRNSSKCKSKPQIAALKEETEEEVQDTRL
The test can be described thus: Ussing chamber assay of CFTR-mediated short-circuit currents, Assay A (0.1 μM to 25 μM, 6 concentrations). The format is cell-based. The note with it: with 33 nM potentiator and 18 μM Tezacaftor, 20% human serum; for Emax: 18-24 hours, read-out: A Max activity (%). On the procedure: Ussing chamber experiments were performed using human bronchial epithelial (HBE) cells derived from CF subjects heterozygous for F508del and a minimal function CFTR mutation (F508del/MF-HBE) and cultured as previously described (Neuberger T, Burton B, Clark H, Van Goor F Methods Mol Biol 2011:741:39-54). After four days the apical media was removed, and the cells were grown at an air liquid interface for >14 days prior to use.
To isolate the CFTR-mediated short-circuit (ISC) current, F508del/MF-HBE grown on Costar® Snapwell™ cell culture inserts were mounted in an Ussing chamber and the transepithelial ISC was measured under voltage-clamp recording conditions (Vhold=0 mV) at 37° C. The basolateral solution contained (in mM) 145 NaCl, 0.83 K2HPO4, 3.3 KH2PO4, 1.2 MgCl2, 1.2 CaCl2, 10 Glucose, 10 HEPES (pH adjusted to 7.4 with NaOH) and the apical solution contained (in mM) 145 NaGluconate, 1.2 MgCl2, 1.2 CaCl2, 10 glucose, 10 HEPES (pH adjusted to 7.4 with NaOH) and 30 μM amiloride to block the epithelial sodium channel. Forskolin (20 μM) was added to the apical surface to activate CFTR, followed by apical addition of a CFTR inhibitor cocktail consisting of BPO, GlyH-101, and CFTR inhibitor 172 (each at 20 μM final assay concentration) to specifically isolate CFTR currents. The CFTR-mediated ISC (μA/cm^2) for each condition was determined from the peak forskolin response to the steady-state current following inhibition.
The activity of the CFTR corrector compounds on the CFTR-mediated ISC was determined in Ussing chamber studies as described above. The F508del/MF-HBE cell cultures were either incubated with the corrector compounds at a range of concentrations in combination with 33 nM (6R,12R)-17-amino-12-methyl-6,15-bis(trifluoromethyl)-13,19-dioxa-3,4,18-triazatricyclo[12.3.1.12,5]nonadeca-1(18),2,4,14,16-pentaen-6-ol and 18 μM Tezacaftor or were incubated with the corrector compounds at a single fixed concentration of 1 μM in combination with 44 nM (6R,12R)-17-amino-12-methyl-6,15-bis(trifluoromethyl)-13,19-dioxa-3,4,18-triazatricyclo[12.3.1.12,5]nonadeca-1(18),2,4,14,16-pentaen-6-ol and 18 μM Tezacaftor for 18-24 hours at 37° C. and in the presence of 20% human serum. The concentration of corrector compounds with 44 nM or 33 nM (6R,12R)-17-amino-12-methyl-6,15-bis(trifluoromethyl)-13,19-dioxa-3,4,18-triazatricyclo[12.3.1.12,5]nonadeca-1(18),2,4,14,16-pentaen-6-ol and 18 μM Tezacaftor during the 18-24 hours incubations was kept constant throughout the Ussing chamber measurement of the CFTR-mediated ISC to ensure compounds were present throughout the entire experiment. The efficacy and potency of the putative F508del correctors was compared to that of the known Vertex corrector, (14S)-8-[3-(2-{Dispiro[2.0.2.1]heptan-7-yl}ethoxy)-1H-pyrazol-1-yl]-12,12-dimethyl-2λ^6-thia-3,9,11,18,23-pentaazatetracyclo[17.3.1.111,14.05,10]tetracosa-1(22),5,7,9,19(23),20-hexaene-2,2,4-trione, in combination with 18 μM Tezacaftor and 1 μM Ivacaftor.
• Assay A: 0.1 μM to 25 μM, 6 concentrations • Assay B: 0.00001 μM to 25 μM, 12 concentrations • Assay C: 0.026 μM to 25 μM, 6 concentrations • Assay D: Activity at single concentration of 1 μM

For the compound `Cc1cccc(C)c1-c1cc2nc(n1)NS(=O)(=O)c1cccc(c1)C(=O)N(Cc1cn3cccc(N)c3n1)[C@H](CC(C)(C)C)CO2` [III-12], the Emax was > 60% and the half-maximal effective concentration (EC50) was < 1000 nM.

For the compound `Cc1cccc(C)c1-c1cc2nc(n1)NS(=O)(=O)c1cccc(c1)C(=O)N(Cc1cnc3oc(C(C)C)c(C)c3n1)[C@H](CC1CCCCC1)CO2` [Compound I-12], the Emax was > 60% and the EC50 was < 1000 nM.

Consider `Cc1cccc(C)c1-c1cc2nc(n1)NS(=O)(=O)c1cccc(c1)C(=O)N(Cc1cnc3oc(C4CC4)cc3n1)[C@H](CC1(C)CC1)CO2` [Compound I-25], for which the Emax was > 60% and the EC50 is < 1000 nM.

Turning to `Cc1cccc(C)c1-c1cc2nc(n1)NS(=O)(=O)c1cccc(c1)C(=O)N(Cc1nc3c(C(C)C)cccc3o1)[C@H](CC(C)(C)C)CO2` [III-7], the Emax is > 60% and the EC50 is < 1000 nM.

`Cc1cccc(C)c1-c1cc2nc(n1)NS(=O)(=O)c1cccc(c1)C(=O)N(Cc1nc3c(cc1F)cc(C(C)C)n3C)[C@H](CC1(C)CC1)CO2` [Compound I-80]: the Emax is > 60% and the concentration giving a half-maximal response (EC50) is < 1000 nM.

With `Cc1cccc(C)c1-c1cc2nc(n1)NS(=O)(=O)c1cccc(c1)C(=O)N(Cc1cnc3cc(C(C)C)n(C)c3n1)[C@H](CC1C3(CC3)C13CC3)CO2` [Compound I-100], the Emax was > 60% and the EC50 is < 1000 nM.

With `Cc1cccc(C)c1-c1cc2nc(n1)NS(=O)(=O)c1cccc(c1)C(=O)N(Cc1cnc3oc(C(C)C)c(C)c3n1)[C@H](CCC(C)C)CO2` [Compound I-19], the Emax was > 60% and the EC50 is < 1000 nM.

Regarding `Cc1cccc(C)c1-c1cc2nc(n1)NS(=O)(=O)c1cccc(c1)C(=O)N(Cc1nc3cc(C(C)C)oc3cc1F)[C@H](CC(C)(C)C)CO2` [Compound I-63], the Emax was > 60% and the EC50 was < 1000 nM.

For `Cc1cccc(C)c1-c1cc2nc(n1)NS(=O)(=O)c1cccc(c1)C(=O)N(Cc1cnc3oc(C(C)C)cc3n1)[C@H](CCC(C)(C)F)CO2` (single isomer, unassigned) [Compound I-36], the Emax was > 60% and the EC50 was < 1000 nM.

Regarding `Cc1cccc(C)c1-c1cc2nc(n1)NS(=O)(=O)c1cccc(c1)C(=O)N(Cc1cnc3oc(C(C)C)c(C#N)c3n1)[C@H](CC13CC(C1)C3)CO2` [Compound I-85], the Emax is > 60% and the concentration for a half-maximal effect (EC50) is < 1000 nM.

On to `Cc1cccc(C)c1-c1cc2nc(n1)NS(=O)(=O)c1cccc(c1)C(=O)N(C(=O)c1cncc(N(C)C3CCC3)n1)[C@H](CC(C)(C)C)CO2` [II-32], for which the Emax is > 60% and the half-maximal effective concentration (EC50) is < 1000 nM.

Consider `Cc1cccc(C)c1-c1cc2nc(n1)NS(=O)(=O)c1cccc(c1)C(=O)N(Cc1cnc3oc(C(C)C)cc3n1)[C@H](CC1(C(F)(F)F)CC1)CO2` [Compound I-54], for which the Emax was > 60% and the EC50 is < 1000 nM.

For the compound `Cc1cccc(C)c1-c1cc2nc(n1)NS(=O)(=O)c1cccc(c1)C(=O)N(Cc1cnc3cc(C(C)C)n(C)c3n1)[C@H](C[C@H]1CCCCO1)CO2` [Compound I-3], the Emax is > 60% and the concentration for a half-maximal effect (EC50) is < 1000 nM.

For the compound `Cc1cccc(C)c1-c1cc2nc(n1)NS(=O)(=O)c1cccc(c1)C(=O)N(Cc1cnc3oc(C(C)C)cc3n1)[C@H](CC1CCCCC1)CO2` [Compound I-9], the Emax is > 60% and the EC50 was < 1000 nM.

Consider `Cc1cccc(C)c1-c1cc2nc(n1)NS(=O)(=O)c1cccc(c1)C(=O)N(Cc1cnc3oc(C)c(C4CC4)c3n1)[C@H](CCC(C)(C)C)CO2` [Compound I-27], for which the Emax is > 60% and the concentration giving a half-maximal response (EC50) was < 1000 nM.

In the case of `Cc1cccc(C)c1-c1cc2nc(n1)NS(=O)(=O)c1cccc(c1)C(=O)N(Cc1cnc3oc(C4CC4)cc3n1)[C@H](CCC(C)(C)F)CO2` [Compound I-107], the Emax is > 60% and the concentration for a half-maximal effect (EC50) is < 1000 nM.

Take `Cc1cccc(C)c1-c1cc2nc(n1)NS(=O)(=O)c1cccc(c1)C(=O)N(Cc1nc3c(cc1F)cc(C(C)C)n3C)[C@H](CC(C)(C)C)CO2` [Compound I-6]: the Emax was > 60% and the EC50 was < 1000 nM.

Regarding `Cc1cccc(C)c1-c1cc2nc(n1)NS(=O)(=O)c1cccc(c1)C(=O)N(Cc1cnc3c(n1)CC(C(C)C)O3)[C@H](CC1(C)CC1)CO2` (single isomer, unassigned) [III-13], the Emax is > 60% and the concentration giving a half-maximal response (EC50) is < 1000 nM.

Take `Cc1cccc(C)c1-c1cc2nc(n1)NS(=O)(=O)c1cccc(c1)C(=O)N(Cc1cnc3oc(C(C)C)c(C)c3n1)[C@H](COC(C)C)CO2` [Compound I-10]: the Emax is > 60% and the EC50 is < 1000 nM.

Take `Cc1cccc(C)c1-c1cc2nc(n1)NS(=O)(=O)c1cccc(c1)C(=O)N(Cc1nc3cc(C(C)C)oc3cc1F)[C@H](CC1(C)CC1)CO2` [Compound I-78]: the Emax was > 60% and the half-maximal effective concentration (EC50) is < 1000 nM.

As to `Cc1cccc(C)c1-c1cc2nc(n1)NS(=O)(=O)c1cccc(c1)C(=O)N(Cc1cnc3cc(C(C)C)n(C)c3n1)[C@H](CCC1(C)CCC1)CO2` [Compound I-41], the Emax was > 60% and the EC50 was < 1000 nM.

As to `Cc1cccc(C)c1-c1cc2nc(n1)NS(=O)(=O)c1cccc(c1)C(=O)N(Cc1cnc3oc(C(C)C)cc3n1)[C@H](CC1C3(CC3)C13CC3)CO2` [Compound I-101], the Emax was > 60% and the half-maximal effective concentration (EC50) is < 1000 nM.

Consider `Cc1cccc(C)c1-c1cc2nc(n1)NS(=O)(=O)c1cccc(c1)C(=O)N(Cc1cnc3oc(C(C)C)cc3n1)[C@H](CC1CCCO1)CO2` (single isomer, unassigned) [Compound I-18], for which the Emax is > 60% and the EC50 is < 1000 nM.

For the compound `Cc1cccc(C)c1-c1cc2nc(n1)NS(=O)(=O)c1cccc(c1)C(=O)N(Cc1cnc3oc(C4CC4)cc3n1)[C@H](CC1C3(CC3)C13CC3)CO2` [Compound I-102], the Emax was > 60% and the EC50 was < 1000 nM.

Consider `Cc1cccc(C)c1-c1cc2nc(n1)NS(=O)(=O)c1cccc(c1)C(=O)N(Cc1cnc3oc(C(C)C)c(C#N)c3n1)[C@H](CC1(C)CC1)CO2` [Compound I-53, 2-[[(11R)-6-(2,6-dimethylphenyl)-11-[(1-methylcyclopropyl)methyl]-2,2,13-trioxo-9-oxa-2λ^6-thia-3,5,12,19-tetrazatricyclo[12.3.1.14,8]nonadeca-1(18),4(19),5,7,14,16-hexaen-12-yl]methyl]-6-isopropyl-furo[2,3-b]pyrazine-7-carbonitrile], for which the Emax is > 60% and the EC50 was < 1000 nM.

With `Cc1cccc(C)c1-c1cc2nc(n1)NS(=O)(=O)c1cccc(c1)C(=O)N(Cc1cnc3oc(C4CC4)cc3n1)[C@H](C[C@H]1CCCCO1)CO2` (stereo in doubt) [Compound I-44], the Emax was > 60% and the EC50 was < 1000 nM.

In the case of `Cc1cccc(C)c1-c1cc2nc(n1)NS(=O)(=O)c1cccc(c1)C(=O)N(Cc1cnc3oc(C(C)C)c(C)c3n1)[C@H](CC1CCCC1)CO2` [Compound I-64], the Emax is > 60% and the EC50 is < 1000 nM.

`Cc1cccc(C)c1-c1cc2nc(n1)NS(=O)(=O)c1cccc(c1)C(=O)N(Cc1cnc3oc(C(C)C)c(C)c3n1)[C@H](CC1(C)CC1)CO2` [Compound I-17]: the Emax was > 60% and the EC50 was < 1000 nM.

As to `Cc1cccc(C)c1-c1cc2nc(n1)NS(=O)(=O)c1cccc(c1)C(=O)N(Cc1cnc3oc(C(C)C)c(C)c3n1)[C@H](CC(C)(C)C)CO2` [Compound I-4], the Emax was > 60% and the EC50 is < 1000 nM.
